We go through 1 compound from patent US20260085280A1, “ADAPTATION AND PROCESS OPTIMIZATION OF MICROORGANISMS FOR GROWTH IN HEMICELLULOSIC DERIVED CARBOHYDRATES” (MARA RENEWABLES CORPORATION, priority 2018, published 2026).

SMILES strings stand for the structures.

One test concerns Gxs1 7-7. The test is described as follows: xylose depletion flask assay, medium spiked with increasing concentrations of xylitol. To be noted: 20 g/L xylose and 8 g/L glucose; for Biomass / Xylose used / Xylose used (%): after 144 hours. In kind it is cell-based, Thraustochytrium species (ONC-T18). How it is done: The impact of xylitol concentration on glucose and xylose consumption was determined using 7-7, Gxs1 7-7, and 51-7 strains. […] In xylose depletion flask assays, Gxs1 7-7 was used with medium containing 20 g/L xylose and 8 g/L glucose and spiked with increasing concentrations of xylitol as shown in Table 4. The values in Table 4 are the total amount of biomass produced and xylose used after 144 hours. The glucose used amounts are shown at 48 hours.

Test [1] concerns 7-7, Gxs1 7-7, and 51-7 strains. As to the kind of experiment: impact of xylitol concentration on glucose and xylose consumption. Conditions: FIGS. 2A-2D and Table 4. Type of test: cell-based, Thraustochytrium species (ONC-T18). The method, then: The impact of xylitol concentration on glucose and xylose consumption was determined using 7-7, Gxs1 7-7, and 51-7 strains.

As for `OC[C@@H](O)[C@H](O)[C@@H](O)CO` [Xylitol, xylitol], in the test on Gxs1 7-7 (1 g L^−1 xylitol), the “Glucose used (%) @48 hr” value turned out to be 99.9%, the “Glucose used (g) @48 hr” value amounted to 9.04 g, the Biomass came out at 7.225 g/L and the “Xylose used” value is given as 11.03 g. In addition, the “Xylose used (%)” value in the test with Gxs1 7-7 (1 g L^−1 xylitol) is recorded as 56.2%. Also, in the test on Gxs1 7-7 (5 g L^−1 xylitol), the “Glucose used (%) @48 hr” value is reported as 43.7%, the “Glucose used (g) @48 hr” value is listed as 3.99 g, the Biomass was 6.683 g/L and the “Xylose used” value turned out to be 5.06 g. Further, the “Xylose used (%)” value with Gxs1 7-7 (5 g L^−1 xylitol) is recorded as 25.5%. Also, in the test on Gxs1 7-7 (10 g L^−1 xylitol), the “Glucose used (%) @48 hr” value stood at 18.6%, the “Glucose used (g) @48 hr” value is reported as 1.66 g, the Biomass amounted to 6.425 g/L and the “Xylose used” value is reported as 4.24 g. For the same compound, the “Xylose used (%)” value with Gxs1 7-7 (10 g L^−1 xylitol) is 22.0%. Moreover, in the test with Gxs1 7-7 (15 g L^−1 xylitol), the “Glucose used (%) @48 hr” value was 12.8%, the “Glucose used (g) @48 hr” value is 1.13 g, the Biomass was found to be 6.592 g/L and the “Xylose used” value came to 3.67 g. In addition, the “Xylose used (%)” value in the test with Gxs1 7-7 (15 g L^−1 xylitol) was determined as 19.3%. The “xylitol concentration to be kept in order to avoid growth inhibition” value in test [1] is “lower than 1 g/L”.
